Experiments:
[1] = aqueous solution; cited from earlier work
[2] = Wang Hongchen 1983; cited from earlier work
[3] = Verification of preparation method of CN02125823.6: discoloration and UV scanning for destructiveness of NaOH to silybin; type: physicochemical; conditions: scanned within the wavelength of 190-600 nm
Source text: The Chinese patent application CN02125823.6 with the title “silymarin injection containing cyclodextrin or derivatives thereof” and the publication number of CN1391894A, according to the implementing scheme recorded in the Description, has the key technical features of adding silymarin into an aqueous solution containing cyclodextrin, regulating the pH of the solution to alkalinity using sodium hydroxide to dissolve silybin, and after dissolution, regulating the pH value to be 6.0 to 6.5 using hydrochloric acid to obtain a silymarin cyclodextrin inclusion compound. During verification, the silymarin is replaced with silybin, and the verification is strictly performed according to the implementing scheme described in embodiment 1 of the patent.
Dissolving 3 g of hydroxypropyl-β-cyclodextrin in 10 ml of water for injection, adding 300 mg of silybin, regulating the pH value to be 10 with 1N of NaOH solution, continuously stirring for 5 hours to dissolve the silybin, regulating the pH to be 6.5 with 1N of HCl solution, and performing filtration, bacterium removal, sub-packaging, freeze-drying and sealing, to obtain a silybin freeze-dried powder for injection.
However, for the preparation method of the present invention, the discoloration phenomenon is not found in the whole preparation process. […]

[4] = taken orally; Wu J W et al. 2007; cited from earlier work
[5] = Inclusion stability of silybin injections containing different types of cyclodextrin, standing at room temperature; type: physicochemical; conditions: 50 g of cyclodextrin in 1000 ml of water for injection
Source text: The types of cyclodextrin recorded in the Chinese patent application CN200410041364.0 include: β-cyclodextrin, hydroxypropyl-β-cyclodextrin, hydroxyethyl-β-cyclodextrin, methyl-β-cyclodextrin, glucosyl-β-cyclodextrin and sulfonyl-β-cyclodextrin. The cyclodextrin adopted in the present invention is sulfobutylether-β-cyclodextrin and is a specific inclusion material for the present invention. In contrast tests, silybin injections containing different types of cyclodextrin are respectively prepared by adopting the same formulation constituents, formulation dosage and preparation process. Standing is preformed at room temperature for one-week, and the inclusion stability of the injections is observed with the passage of time, that is, the time of medicine precipitation is regarded as a study index to screen the types of cyclodextrin.
Allow the injections to stand at room temperature for one week, and respectively observe the inclusion stability of the injections over time, i.e., study the influence of different types of cyclodextrins on the inclusion stability of silybin.

Q: Which pH value [1] does the source give for CNC[C@H](O)[C@@H](O)[C@H](O)[C@H](O)CO.COc1cc(C2Oc3ccc(C4Oc5cc(O)cc(O)c5C(=O)C4O)cc3OC2CO)ccc1O (centres unmarked) [silybin N-methylglucamine] here?
A: Its pH value is “about 11”.

Q: For COc1cc([C@@H]2Oc3cc([C@@H]4Oc5cc(O)cc(O)c5C(=O)[C@H]4O)ccc3O[C@H]2CO)ccc1O [silybin, Silybin], which “water solubility and lipid solubility” value [2] is on record?
A: Its value is “poor”.

Q: What about the “UV absorption peaks (verification of destructiveness caused by NaOH to silybin)” value [3] of the same molecule?
A: The value was 287.5 nm.

Q: And the absolute bioavailability [4]?
A: Its absolute bioavailability is 0.95%.

Q: For OC[C@H]1O[C@@H]2O[C@H]3[C@H](O)[C@@H](O)[C@@H](O[C@H]4[C@H](O)[C@@H](O)[C@@H](O[C@H]5[C@H](O)[C@@H](O)[C@@H](O[C@H]6[C@H](O)[C@@H](O)[C@@H](O[C@H]7[C@H](O)[C@@H](O)[C@@H](O[C@H]8[C@H](O)[C@@H](O)[C@@H](O[C@H]1[C@H](O)[C@H]2O)O[C@@H]8CO)O[C@@H]7CO)O[C@@H]6CO)O[C@@H]5CO)O[C@@H]4CO)O[C@@H]3CO [β-cyclodextrin], which “dissolution of cyclodextrin in water” value [5] is on record?
A: The value was “cannot completely dissolve in water”.
